Assay results published in patent US20230027985A1, “SUBSTITUTED HYDANTOINAMIDES AS ADAMTS7 ANTAGONISTS” (Bayer Aktiengesellschaft, priority 2019, published 2023).

Tests used:
ADAMTS4 = target: T1, ADAMTS4 (Homo sapiens, UniProt O75173); experiment: Selectivity assay for ADAMTS-7 modulators (FRET), ADAMTS4; format: biochemical; settings: 50 nM enzyme (R&D 4307-AD), 1 μM Dabcyl/Edans FRET substrate, 120 min at 32° C.
T1 construct: purchased R&D 4307-AD
T1 sequence (O75173 213-685 limits assumed): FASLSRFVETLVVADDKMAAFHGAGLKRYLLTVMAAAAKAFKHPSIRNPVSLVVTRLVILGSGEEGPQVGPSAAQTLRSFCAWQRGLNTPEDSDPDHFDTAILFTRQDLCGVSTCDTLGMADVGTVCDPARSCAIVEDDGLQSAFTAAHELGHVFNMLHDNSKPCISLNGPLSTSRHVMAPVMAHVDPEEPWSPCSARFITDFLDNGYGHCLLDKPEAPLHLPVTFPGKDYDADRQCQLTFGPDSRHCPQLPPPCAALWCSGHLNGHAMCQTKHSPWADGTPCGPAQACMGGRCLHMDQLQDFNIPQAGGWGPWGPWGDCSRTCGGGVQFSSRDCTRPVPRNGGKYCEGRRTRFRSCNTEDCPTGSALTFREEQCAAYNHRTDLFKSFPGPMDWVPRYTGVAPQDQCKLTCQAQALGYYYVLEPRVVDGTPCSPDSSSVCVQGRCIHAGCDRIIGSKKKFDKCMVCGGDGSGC
In short: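 Enzyme in 50 mM Tris pH 7.5, 150 mM NaCl, 10 mM CaCl2, 0.05% Brij, preincubated with compound in DMSO; reaction started with FRET substrate. Fluorescence increase read after 120 min at 32° C; IC50 from percent inhibition versus compound concentration.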

[1] = target: T2, Purified recombinant ADAMTS-7 (rat prodomain/human catalytic domain, SEQ ID No. 01 or 02) (Homo sapiens, UniProt Q9UKP4); experiment: Assay for ADAMTS-7 enzymatic activity (FRET substrate cleavage); format: biochemical; settings: FRET substrate SEQ ID No. 11, 120 min at 32° C.; read-out: ADAMTS7-IC50
T2 construct: rat ADAMTS-7 signal peptide + prodomain (rat 1-217, Q1EHB3) (N); 2xStrep tag (C); 6xHis tag (C); made in house; host or cells: Expi293 cells
T2 sequence (Q9UKP4 237-537): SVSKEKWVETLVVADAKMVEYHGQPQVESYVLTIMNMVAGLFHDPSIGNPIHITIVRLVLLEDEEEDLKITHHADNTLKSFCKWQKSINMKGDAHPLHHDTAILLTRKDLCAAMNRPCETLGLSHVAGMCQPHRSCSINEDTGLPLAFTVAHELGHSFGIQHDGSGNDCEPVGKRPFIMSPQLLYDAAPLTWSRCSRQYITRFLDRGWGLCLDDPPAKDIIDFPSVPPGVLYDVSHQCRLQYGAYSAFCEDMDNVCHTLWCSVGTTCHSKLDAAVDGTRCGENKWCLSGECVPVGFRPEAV
In short: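 About 20 nM enzyme in 20 mM HEPES pH 8.0, 150 mM NaCl, 5 mM CaCl2, 0.004% Brij and 10 μM ZnCl2 was mixed with compound in DMSO and a QXL520-quenched FRET peptide from thrombospondin-1 (275-289). After 120 min at 32 °C, fluorescence was read at 485/520 nm. IC50 came from percent inhibition versus concentration.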

`O=C1NC(=O)C(CNC(=O)c2cnn(-c3ccccc3)n2)(c2ccccn2)N1` (stereo not drawn) [Example 38, ent-N-{[2,5-dioxo-4-(pyridin-2-yl)imidazolidin-4-yl]methyl}-2-phenyl-2H-1,2,3-triazole-4-carboxamide] gave an IC50 (ADAMTS4) of 2800 nM and an IC50 [1] of 10 nM.

With `C[C@H](NC(=O)c1cnn(-c2ccccc2)n1)C1(C2CC2)NC(=O)NC1=O` (stereo partly drawn) [Example 40, ent-N-((1S)-1-(4-Cyclopropyl-2,5-dioxoimidazolidin-4-yl)ethyl)-2-phenyl-2H-1,2,3-triazole-4-carboxamide] the IC50 (ADAMTS4) was 25000 nM and the IC50 [1] was 980 nM.

`O=C1NC(=O)[C@](CNC(=O)c2coc(-c3ccc(F)cc3)n2)(C2CC2)N1` [Example 41, N-{[(4R)-4-cyclopropyl-2,5-dioxoimidazolidin-4-yl]methyl}-2-(4-fluorophenyl)-1,3-oxazole-4-carboxamide] was tested, and the IC50 (ADAMTS4) was 1700 nM and the IC50 [1] was 55 nM.

In the case of `O=C1NC(=O)[C@](CNC(=O)c2nnc(-c3ccc(F)cc3)o2)(C2CC2)N1` [Example 42, N-{[(4R)-4-cyclopropyl-2,5-dioxoimidazolidin-4-yl]methyl}-5-(4-fluorophenyl)-1,3,4-oxadiazole-2-carboxamide], the IC50 (ADAMTS4) is reported as 12000 nM and the IC50 [1] is reported as 350 nM.

With `CC1(C)CC1C1(CNC(=O)c2cnn(-c3ccccc3)n2)NC(=O)NC1=O` (stereo not drawn) [Example 43, ent-N-{[4-(2,2-dimethylcyclopropyl)-2,5-dioxoimidazolidin-4-yl]methyl}-2-phenyl-2H-1,2,3-triazole-4-carboxamide] the IC50 (ADAMTS4) was 13000 nM and the IC50 [1] was 320 nM.

With `CC(C)(C)CC1(CNC(=O)c2cnn(-c3ccccc3)n2)NC(=O)NC1=O` (stereo not drawn) [Example 44, ent-N-{[4-(2,2-dimethylpropyl)-2,5-dioxoimidazolidin-4-yl]methyl}-2-phenyl-2H-1,2,3-triazole-4-carboxamide] the IC50 (ADAMTS4) was 5000 nM and the IC50 [1] was 250 nM.

`O=C1NC(=O)[C@](CNC(=O)c2cnn(-c3ccccc3)n2)(C2CC2)N1` [Example 45, N-{[(4R)-4-cyclopropyl-2,5-dioxoimidazolidin-4-yl]methyl}-2-phenyl-2H-1,2,3-triazole-4-carboxamide] showed an IC50 (ADAMTS4) of 1450 nM and an IC50 [1] of 69 nM.

With `O=C1NC(=O)[C@](CNC(=O)c2cnn(-c3ccccn3)n2)(C2CC2)N1` [Example 47, N-{[(4R)-4-cyclopropyl-2,5-dioxoimidazolidin-4-yl]methyl}-2-(pyridin-2-yl)-2H-1,2,3-triazole-4-carboxamide] the IC50 (ADAMTS4) was 7650 nM and the IC50 [1] was 98 nM.

`O=C1NC(=O)[C@](CNC(=O)c2cnn(-c3ccccc3)c2)(C2CC2)N1` [Example 56, N-{[(4R)-4-cyclopropyl-2,5-dioxoimidazolidin-4-yl]methyl}-1-phenyl-1H-pyrazole-4-carboxamide] showed an IC50 (ADAMTS4) of 1800 nM and an IC50 [1] of 129 nM.

`CC(CO)C1(CNC(=O)c2cnn(-c3ccccc3)n2)NC(=O)NC1=O` (centres unmarked) [Example 57] showed an IC50 (ADAMTS4) of 17000 nM and an IC50 [1] of 190 nM.

With `O=C1NC(=O)[C@](CNC(=O)c2cnc(-c3ccccc3)o2)(C2CC2)N1` [Example 59, N-{[(4R)-4-cyclopropyl-2,5-dioxoimidazolidin-4-yl]methyl}-2-phenyl-1,3-oxazole-5-carboxamide] the IC50 (ADAMTS4) was 11300 nM and the IC50 [1] was 550 nM.

For `O=C1NC(=O)[C@](CNC(=O)c2cnn(-c3ccccn3)n2)(C2CC2)N1` [Example 60, N-{[(4R)-4-cyclopropyl-2,5-dioxoimidazolidin-4-yl]methyl}-2-(pyridin-2-yl)-2H-1,2,3-triazole-4-carboxamide], the IC50 (ADAMTS4) was 8400 nM and the IC50 [1] was 259 nM.

For `CC(C)C1(CNC(=O)c2cnn(-c3ccccc3)n2)NC(=O)NC1=O` (stereo not drawn) [Example 70, ent-N-[(2,5-dioxo-4-(propan-2-yl)imidazolidin-4-yl)methyl]-2-phenyl-2H-1,2,3-triazole-4-carboxamide], the IC50 (ADAMTS4) was 10000 nM and the IC50 [1] was 76 nM.

`CC(C)(C)C1(CNC(=O)c2cnn(-c3ccccc3)n2)NC(=O)NC1=O` (stereo not drawn) [Example 71, ent-N-[(4-tert-butyl-2,5-dioxoimidazolidin-4-yl)methyl]-2-phenyl-2H-1,2,3-triazole-4-carboxamide] showed an IC50 (ADAMTS4) of 13100 nM and an IC50 [1] of 47 nM.

For `O=C1NC(=O)C(CNC(=O)c2cnn(-c3ccc(F)cc3)n2)(CC2CC2)N1` (stereo not drawn) [Example 72, ent-N-[(4-(cyclopropylmethyl)-2,5-dioxoimidazolidin-4-yl]methyl]-2-(4-fluorophenyl)-2H-1,2,3-triazole-4-carboxamide], the IC50 (ADAMTS4) was 6200 nM and the IC50 [1] was 130 nM.

For `CCCC1(CNC(=O)c2cnn(-c3ccc(F)cc3)n2)NC(=O)NC1=O` (stereo not drawn) [Example 73, ent-N-[(2,5-dioxo-4-propylimidazolidin-4-yl)methyl]-2-(4-fluorophenyl)-2H-1,2,3-triazole-4-carboxamide], the IC50 (ADAMTS4) was 5100 nM and the IC50 [1] was 60 nM.

With `O=C1NC(=O)C(CNC(=O)c2cnn(-c3ccc(F)cc3)n2)(C2CCCC2)N1` (stereo not drawn) [Example 74, ent-N-[(4-cyclopentyl-2,5-dioxoimidazolidin-4-yl)methyl]-2-(4-fluorophenyl)-2H-1,2,3-triazole-4-carboxamide] the IC50 (ADAMTS4) was 5900 nM and the IC50 [1] was 33 nM.

Work on `O=C1NC(=O)C(CNC(=O)c2cnn(-c3ccc(F)cc3)n2)(C2CCCCC2)N1` (stereo not drawn) [Example 75, ent-N-[(4-cyclohexyl-2,5-dioxoimidazolidin-4-yl)methyl]-2-(4-fluorophenyl)-2H-1,2,3-triazole-4-carboxamide] yielded an IC50 (ADAMTS4) of 4100 nM and an IC50 [1] of 14 nM.

`CC(C)C1(CNC(=O)c2cnn(-c3ccc(F)cc3)n2)NC(=O)NC1=O` (stereo not drawn) [Example 76, ent-N-[(2,5-dioxo-4-(propan-2-yl)imidazolidin-4-yl)methyl]-2-(4-fluorophenyl)-2H-1,2,3-triazole-4-carboxamide] gave an IC50 (ADAMTS4) of 2770 nM and an IC50 [1] of 8 nM.

With `O=C1NC(=O)C(CNC(=O)c2cnn(-c3ccc(F)cc3)n2)(C2CCC2)N1` (stereo not drawn) [Example 77, ent-N-[(4-cyclobutyl-2,5-dioxoimidazolidin-4-yl)methyl]-2-(4-fluorophenyl)-2H-1,2,3-triazole-4-carboxamide] the IC50 (ADAMTS4) was 4380 nM and the IC50 [1] was 24 nM.

With `CCCCC1(CNC(=O)c2cnn(-c3ccccc3)n2)NC(=O)NC1=O` (stereo not drawn) [Example 78, ent-N-[(4-butyl-2,5-dioxoimidazolidin-4-yl)methyl]-2-phenyl-2H-1,2,3-triazole-4-carboxamide] the IC50 (ADAMTS4) was 19000 nM and the IC50 [1] was 191 nM.

`O=C1NC(=O)C(CNC(=O)c2cnn(-c3ccccc3)n2)(C2CCC2)N1` (stereo not drawn) [Example 79, ent-N-[(4-cyclobutyl-2,5-dioxoimidazolidin-4-yl)methyl]-2-phenyl-2H-1,2,3-triazole-4-carboxamide] was tested, and the IC50 (ADAMTS4) was 11000 nM and the IC50 [1] was 78 nM.

Work on `O=C1NC(=O)C(CNC(=O)c2nc(-c3ccccc3)no2)(CC2CC2)N1` (stereo not drawn) [Example 80, ent-N-[(4-(cyclopropylmethyl)-2,5-dioxoimidazolidin-4-yl)methyl]-3-phenyl-1,2,4-oxadiazole-5-carboxamide] yielded an IC50 (ADAMTS4) of 2900 nM and an IC50 [1] of 250 nM.

Molecule `CCCCC1(CNC(=O)c2cnn(-c3ccc(F)cc3)n2)NC(=O)NC1=O` (centres unmarked) [Example 82] has an IC50 (ADAMTS4) of 3100 nM and an IC50 [1] of 48 nM.

Molecule `O=C1NC(=O)C(CNC(=O)c2cnn(-c3ccccc3)n2)(C2CCCC2)N1` (stereo not drawn) [Example 83, ent-N-[(4-cyclopentyl-2,5-dioxoimidazolidin-4-yl)methyl]-2-phenyl-2H-1,2,3-triazole-4-carboxamide] has an IC50 (ADAMTS4) of 11000 nM and an IC50 [1] of 120 nM.
